From US12011517B2, “Air freshening product” (The Procter & Gamble Company, priority 2019, dated 2024)

Compound	Average Vapor Pressure (Torr) at 25 degrees Celsius [Torr]
CCC/C=C/C=O [(E)-2-Hexen-1-al]	10.7
CCCCCCC/C=C/C=O [(E)-2-Decen-1-al]	0.0674
